Key:
Assay in all cases: DSF assay
Format in all cases: binding
Conditions in all cases: 20 µM compound
DMPK1A = biological target: T1, DMPK1A (Homo sapiens, UniProt Q09013)
T1 construct: purchased in-house DSF panel (SGC-style construct names; the trailing A/B is a construct suffix)
T1 sequence (Q09013 1-629): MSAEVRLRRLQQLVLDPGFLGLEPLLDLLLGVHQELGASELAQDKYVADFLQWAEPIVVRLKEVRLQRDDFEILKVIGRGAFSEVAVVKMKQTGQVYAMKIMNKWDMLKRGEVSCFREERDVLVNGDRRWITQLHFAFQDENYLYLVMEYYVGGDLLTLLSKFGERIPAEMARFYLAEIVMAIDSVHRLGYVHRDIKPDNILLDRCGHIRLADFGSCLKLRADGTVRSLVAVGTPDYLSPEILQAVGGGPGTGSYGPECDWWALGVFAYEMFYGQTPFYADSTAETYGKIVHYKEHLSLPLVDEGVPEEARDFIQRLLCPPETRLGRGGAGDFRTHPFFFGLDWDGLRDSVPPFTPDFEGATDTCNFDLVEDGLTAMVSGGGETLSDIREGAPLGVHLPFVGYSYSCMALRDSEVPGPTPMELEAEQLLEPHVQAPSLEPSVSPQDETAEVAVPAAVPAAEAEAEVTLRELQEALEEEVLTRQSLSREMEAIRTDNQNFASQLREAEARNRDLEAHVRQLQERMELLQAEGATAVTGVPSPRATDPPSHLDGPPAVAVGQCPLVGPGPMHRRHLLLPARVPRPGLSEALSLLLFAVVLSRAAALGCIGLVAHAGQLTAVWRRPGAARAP

GSG2A = biological target: T2, GSG2A (Homo sapiens, UniProt Q8TF76)
T2 construct: purchased in-house DSF panel (SGC-style construct names; the trailing A/B is a construct suffix)
T2 sequence (Q8TF76 465-798): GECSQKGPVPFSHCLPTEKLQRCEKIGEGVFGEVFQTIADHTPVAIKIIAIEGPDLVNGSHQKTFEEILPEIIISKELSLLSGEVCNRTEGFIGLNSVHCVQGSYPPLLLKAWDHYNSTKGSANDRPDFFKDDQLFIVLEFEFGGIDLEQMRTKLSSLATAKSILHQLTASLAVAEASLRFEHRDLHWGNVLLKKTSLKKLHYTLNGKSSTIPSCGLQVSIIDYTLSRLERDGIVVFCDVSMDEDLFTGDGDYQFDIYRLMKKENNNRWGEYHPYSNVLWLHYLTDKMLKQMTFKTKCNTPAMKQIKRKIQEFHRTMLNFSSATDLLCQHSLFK

MAP2K4 = biological target: T3, MAP2K4 (Homo sapiens, UniProt P45985)
T3 construct: purchased in-house DSF panel (SGC-style construct names; the trailing A/B is a construct suffix)
T3 sequence (P45985 102-367): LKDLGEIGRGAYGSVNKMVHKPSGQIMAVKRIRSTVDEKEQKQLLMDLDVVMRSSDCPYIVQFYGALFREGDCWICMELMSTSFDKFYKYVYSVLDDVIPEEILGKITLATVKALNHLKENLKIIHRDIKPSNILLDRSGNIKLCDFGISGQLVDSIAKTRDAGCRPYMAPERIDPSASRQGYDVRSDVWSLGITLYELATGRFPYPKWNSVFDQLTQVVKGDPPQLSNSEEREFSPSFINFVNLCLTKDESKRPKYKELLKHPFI

MAPK1A = biological target: T4, MAPK1A (Homo sapiens, UniProt P28482)
T4 construct: purchased in-house DSF panel (SGC-style construct names; the trailing A/B is a construct suffix)
T4 sequence (P28482 whole entry): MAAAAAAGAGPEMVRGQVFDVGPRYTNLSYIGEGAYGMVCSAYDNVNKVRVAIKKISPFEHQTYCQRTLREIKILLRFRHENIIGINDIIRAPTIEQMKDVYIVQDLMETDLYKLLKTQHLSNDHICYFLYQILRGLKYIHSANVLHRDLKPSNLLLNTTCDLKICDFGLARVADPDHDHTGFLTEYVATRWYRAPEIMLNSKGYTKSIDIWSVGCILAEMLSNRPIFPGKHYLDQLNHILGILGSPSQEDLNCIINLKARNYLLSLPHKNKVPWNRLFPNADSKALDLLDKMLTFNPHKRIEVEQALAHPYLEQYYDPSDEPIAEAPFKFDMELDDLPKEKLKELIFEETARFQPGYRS

OSR1A = biological target: T5, OSR1A (Homo sapiens, UniProt O95747)
T5 construct: purchased in-house DSF panel (SGC-style construct names; the trailing A/B is a construct suffix)
T5 sequence (O95747 17-291): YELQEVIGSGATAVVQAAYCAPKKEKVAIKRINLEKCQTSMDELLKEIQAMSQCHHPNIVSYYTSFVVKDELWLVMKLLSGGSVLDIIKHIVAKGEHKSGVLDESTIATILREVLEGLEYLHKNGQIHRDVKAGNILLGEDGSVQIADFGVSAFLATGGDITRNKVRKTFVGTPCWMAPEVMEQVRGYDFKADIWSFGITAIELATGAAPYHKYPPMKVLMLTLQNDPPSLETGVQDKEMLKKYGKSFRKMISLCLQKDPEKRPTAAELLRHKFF

RPS6K5A = system: RPS6K5A
TOPKA = biological target: T6, TOPKA (Homo sapiens, UniProt Q96KB5)
T6 construct: purchased in-house DSF panel (SGC-style construct names; the trailing A/B is a construct suffix)
T6 sequence (Q96KB5 32-322): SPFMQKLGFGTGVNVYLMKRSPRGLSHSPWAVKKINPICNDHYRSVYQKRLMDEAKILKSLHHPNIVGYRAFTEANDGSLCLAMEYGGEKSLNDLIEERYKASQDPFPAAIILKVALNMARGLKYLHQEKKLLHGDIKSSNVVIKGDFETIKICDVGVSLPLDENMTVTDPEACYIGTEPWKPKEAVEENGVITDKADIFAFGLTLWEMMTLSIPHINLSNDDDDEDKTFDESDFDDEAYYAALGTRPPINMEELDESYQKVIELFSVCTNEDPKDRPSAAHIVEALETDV

| Compound | ΔTm at 20 µM (DMPK1A) | ΔTm at 20 µM (GSG2A) | ΔTm at 20 µM (MAP2K4) | ΔTm at 20 µM (MAPK1A) | ΔTm at 20 µM (OSR1A) | ΔTm (RPS6K5A) | ΔTm at 20 µM (TOPKA) |
| --- | --- | --- | --- | --- | --- | --- | --- |
| CC(C)(C)OC(=O)NCCOCCOCCOCCOCCC(=O)N1CCN(c2cc(Nc3cc(C4CC4)[nH]n3)nc(Nc3ccc(CC#N)cc3)n2)CC1 [4-L] | 3.19 °C | 1.36 °C | 2.65 °C | 3.2 °C | 3.71 °C | 9.52 °C | 0.95 °C |
| CC(C)(C)OC(=O)NCCCOCCOCCOCCCNC(=O)c1cc(Nc2cc(C3CC3)[nH]n2)nc(Nc2ccc(CC#N)cc2)n1 [5-L] | 3.69 °C | 1.49 °C | 2.91 °C | 4.69 °C | 3.94 °C | 11.21 °C | 1.75 °C |
| CCOC(=O)c1cc(Nc2cc(C3CC3)[nH]n2)nc(Nc2ccc(CC#N)cc2)n1 [compound 5] | 3.8 °C | 2.54 °C | 5.55 °C | 4.85 °C | 3.5 °C | 14.62 °C | 2.93 °C |

— paper PMC11851430, “Workflow for E3 Ligase Ligand Validation for PROTAC Development” (ACS Chemical Biology, 2025)
